Tests used:
[1] = tested on: IL-10; experiment: Gene expression of IL-10 in human synoviocytes (PCR Real Time); format: cell-based; conditions: 3 days of treatment, FIG. 1: HAS1 0.5 mg/ml, HAS3 0.1 mg/ml, vs control treated with non-sulfated HA 200 KD
Procedure: Human synoviocytes previously expanded in vitro and maintained in a culture at 37° C. with a medium of DMEM containing 10% of FCS, were seeded at a concentration of 20,000 cells per well (synoviocytes are cells capable of producing various types of cytokines, and are therefore normally used for this type of experimental test). […] After 3 days of treatment, the PCR Real Time was effected to evaluate the gene expression of IL-10 and IL-12: the cell RNA was extracted using the “Trizol” method, following the indications of the supplier (TRIZOL reagent, LIFE Technologies, GIBCO BRL). In short, the cells were lysed by the addition of 1.0 ml of Trizol and the total RNA was quantified by measuring its absorbance at 260 nm. The appropriate primers were selected for each gene to be amplified, using the software Primer3 (Roche Molecular Diagnostics, Pleasanton, Calif., USA). The gene expression was evaluated by means of PCR Real Time effected with a Rotor-gene TM5500 (Corbett research, Sydney, Australia). The PCR reactions were effected using primers at […] and SYBR Green (Invitroge, Carlsbad, Calif., USA) at 40 cycles of 15 s at 95° C., and 1 min. at 60° C. The value of “Fluorescence thresholds (Ct)” was automatically determined by the software, evaluating an amplification coefficient for the genes studied between 92 and 110%. […]

[2] = tested on: TNF receptor; experiment: Inhibition of the binding of 125I-TNF to its receptor in U937 cells (Radioligand Binding); set-up: species or system human; conditions: 125I-TNF 0.028 nM, sample 1 mg/ml, 4° C. 3 hours, medium and low MW
Source text: These experiments were effected to evaluate the effectiveness of the samples tested (prepared according to Examples 1-4) on the capacity of inhibiting the binding of TNF to its receptor expressed by cells of the I.S. normally used in vitro for this type of experiment, carried out with iodinated cytokine components for an evaluation in Radioligand Binding assays. The experimental procedure was effected as described in Baglioni C. et al., J Biol Chem, 1985, 260:13395-13397. In short, the line of human histiocytes of the lymphoma U937 was used, with characteristics of monocytes sensitive to the cytotoxic activity of TNF, expressing its relative receptor. […] At the end of the incubation, the cells were centrifuged with dibutylphthalate/dinonylphthalate 2/1 and the pellet obtained was counted in a γ-counter.

[3] = molecular target: T1, IL-1 receptor (Mus musculus, UniProt P13504); experiment: Inhibition of the binding of 125I-IL-1 to its receptor in 3T3 fibroblasts (Radioligand Binding); conditions: 3T3 cells of mouse, 125I-IL-1 10 pM, sample 1 mg/ml, 37° C. 2 hours; both medium and low MW
T1 construct: the line of murine fibroblasts 3T3 was used, sensitive to the cytotoxic activity of IL-1, expressing its relative receptor; endogenous in cells; host or cells: 3T3 murine fibroblasts (whole cells)
T1 sequence (P13504 20-576): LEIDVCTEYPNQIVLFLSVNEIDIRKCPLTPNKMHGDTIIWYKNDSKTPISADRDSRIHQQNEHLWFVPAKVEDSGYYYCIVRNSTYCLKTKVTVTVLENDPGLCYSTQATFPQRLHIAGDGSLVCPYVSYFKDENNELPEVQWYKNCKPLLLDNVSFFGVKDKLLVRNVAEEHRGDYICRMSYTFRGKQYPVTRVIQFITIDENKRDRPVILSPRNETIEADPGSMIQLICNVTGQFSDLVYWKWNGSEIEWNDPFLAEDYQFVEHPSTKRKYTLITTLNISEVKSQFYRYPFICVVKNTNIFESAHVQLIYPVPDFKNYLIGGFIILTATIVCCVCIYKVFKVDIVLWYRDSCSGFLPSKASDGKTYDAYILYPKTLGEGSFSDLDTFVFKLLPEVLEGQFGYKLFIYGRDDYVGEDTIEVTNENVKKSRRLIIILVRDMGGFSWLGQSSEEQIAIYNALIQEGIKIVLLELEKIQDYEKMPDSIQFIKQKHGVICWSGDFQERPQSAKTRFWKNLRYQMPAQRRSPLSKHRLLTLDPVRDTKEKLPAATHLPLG
Source text: These experiments were effected to evaluate the effectiveness of the samples tested (prepared according to Examples 1-3 and 4) on the capacity of inhibiting the binding of IL-1 to its receptor expressed by 3T3 cells of mouse, normally used in vitro for this type of experiment, carried out with iodinated cytokine components for an evaluation in Radioligand Binding assays. The experimental procedure was effected as described in Chin J et al., J Exp Med, 1987, 165:70-86. In short, the line of murine fibroblasts 3T3 was used, sensitive to the cytotoxic activity of IL-1, expressing its relative receptor. […] At the end of the incubation, the cells were washed with phosphate buffer, then dissolved in 2.5 M of NaOH and counted in a γ-counter.

[4] = Hydrating and protective activity of creams on the forearm (corneometer, Visioscan); format: in vivo; conditions: human subjects
Procedure: 20 human subjects aged between 18 and 70 years, with no skin pathologies and pharmacological treatment underway, were treated daily with certain and constant quantities of the products tested, at the level of the forearm. The experimental products were: control: consisting of a hydrating base cream base cream (as control) containing HA 200 KD 01% base cream (as control) containing HAS3 01%, prepared according to Example 1-2 […]

With “sulfated hyaluronic acid degree 3 [HAS3]” the “gene expression of the cytokine IL-10” value [1] was “significant increase”, the “inhibition of the binding of TNF to its receptor” value [2] was 100% and the “inhibition of the binding of IL-1 to its receptor” value [3] was 30%. The skin roughness index ([4]; after 7 days of treatment, base cream containing HAS3 01%, with respect to the controls) was “significantly diminished” and the “hydrating effect of the skin (corneometer)” value ([4]; daily, T7 vs T0, base cream containing HAS3 01%, vs base cream and cream containing HA) was “greater hydrating effect”.
